In US9232788B2, “Fumigation methods” (Honeywell International Inc., priority 2011, dated 2016):
Entries after “also recorded” stand apart in the source; their conditions may differ.

What was measured:
[1] = Volatility of aqueous fumigant compositions with and without surfactant (weight loss); format: physicochemical; details: with Tween 80 nonionic surfactant versus without; 20° C., vented, weight loss every 30 seconds
Procedure: Experimentation was carried out to determine the volatility of aqueous fumigant compositions, both with and without inclusion of a surfactant. In each case, the fluorocarbon was placed in a chilled 500 ml Fischer Porter tube that was equipped with a vent to remove any gases. The vessel was cooled to 0° C. and was charged with varying amounts of water, fluorocarbon and surfactant. The temperature was equilibrated to 20° C. and the reactor was placed on a balance. The vent tube was opened and the weight loss was recorded every 30 seconds.
In analyzing the effects of adding surfactant to an aqueous solution of HFP, 10.11 grams of HFP was added to 39.71 grams of water. In a separate experiment, 9.83 grams of HFP and 4.03 grams of Tween™ 80 were added to 40.08 grams of water. FIG. 1 provides a graphical representation of the numerical data comparing the volatility of an aqueous solution of HFP, both with and without inclusion of the Tween™ 80 nonionic surfactant.
In analyzing the effects of adding surfactant to an aqueous solution of 1225zc, 10.78 grams of 1225zc were added to 39.69 grams of water. In a separate experiment, 10.70 grams of 1225zc and 4.08 grams of Tween™ 80 were added to 40.15 grams of water. […]

[2] = test system: Lolium multiflorum Lam. seeds; test: Fumigant test on weed seeds in soil, seed germination count; format: in vivo; details: for Seeds Germinated Loliium multiflorum Lam.: fifteen seeds in soil, two days treatment, counted after 10 days; for seed germination (in words): all experimental concentrations (80, 160, 440 ml)
Procedure: In particular, in 440 mL pressure vessels, fourteen seeds of Abutilon theophrasti Medik. and fifteen seeds of Lolium multiflorum Lam. were thoroughly mixed with 50 mL (approximately 30 grams) of soil and 6 mL of water. The filled vessels were kept at room temperature for 20-24 hr to allow the seeds to imbibe water before treatment. The vessels were sealed and evacuated, and then 80 ml, 160 ml and 440 ml respectively of gaseous 1225zc was added. The vessels were thoroughly mixed and placed horizontally on the laboratory bench at ambient temperature for two days. The contents of each bottle were transferred to a plastic sterile Petri dish containing 7 mL of water. The Petri dishes were sealed with parafilm and incubated in the laboratory at ambient temperature. After 10 days, the number of germinated seeds was counted. […]

[3] = test system: Abutilon theophrasti Medik. seeds; test: as above; format: in vivo; details: for Seeds Germinated Abutilon theophrastic Medik.: fourteen seeds in soil, two days treatment, counted after 10 days; for seed germination (in words): all experimental concentrations (80, 160, 440 ml)
Procedure: In particular, in 440 mL pressure vessels, fourteen seeds of Abutilon theophrasti Medik. and fifteen seeds of Lolium multiflorum Lam. were thoroughly mixed with 50 mL (approximately 30 grams) of soil and 6 mL of water. The filled vessels were kept at room temperature for 20-24 hr to allow the seeds to imbibe water before treatment. The vessels were sealed and evacuated, and then 80 ml, 160 ml and 440 ml respectively of gaseous 1225zc was added. The vessels were thoroughly mixed and placed horizontally on the laboratory bench at ambient temperature for two days. The contents of each bottle were transferred to a plastic sterile Petri dish containing 7 mL of water. The Petri dishes were sealed with parafilm and incubated in the laboratory at ambient temperature. After 10 days, the number of germinated seeds was counted.
The same experiment was performed as described in Example 1 except that hexafluoropropene (HFP) was used as the active fumigant composition.

[4] = 80 ml gaseous fumigant in 440 mL vessel
[5] = 160 ml gaseous fumigant in 440 mL vessel
[6] = 440 ml gaseous fumigant in 440 mL vessel

Structure (SMILES)	retention of the fluorocarbon in aqueous solution [1]	Seeds Germinated Loliium multiflorum Lam. [2, 4]	Seeds Germinated Loliium multiflorum Lam. [2, 5]	Seeds Germinated Loliium multiflorum Lam. [2, 6]	seed germination (in words) [2]	seed germination (in words) ([2]; listed as 1125c)	Seeds Germinated Abutilon theophrastic Medik. [3, 4]	Seeds Germinated Abutilon theophrastic Medik. [3, 5]	Seeds Germinated Abutilon theophrastic Medik. [3, 6]	seed germination (in words) [3]	seed germination (in words) ([3]; listed as 1125c)
FC(F)=CC(F)(F)F [1225zc, 1,1,3,3,3-pentafluoropropene]	longer retention	0	0	0	none	completely prevented seed germination	0	0	0	none	completely prevented seed germination
FC(F)=C(F)C(F)(F)F [HFP, hexafluoropropene]	longer retention	0	0	0	completely prevented seed germination; also recorded: no germination occurred	–	0	0	0	completely prevented seed germination; also recorded: no germination occurred	–
